In the supplement of paper PMC5303821, “Major sulfonate transporter Soa1 in Saccharomyces cerevisiae and considerable substrate diversity in its fungal family” (Nature Communications, 2017):

Assays:
Conditions in all cases: sulfur source concentration 200 µM; S. cerevisiae S288C/BY sul1Δ sul2Δ soa1Δ with transporter ortholog inserted at SOA1 locus; sulfur-free B medium, 4% glucose, pH 6.5, sole sulfur source
[1] = test system: Metarhizium robertsii_XP_007822519; assay: lag phase before growth; higher = slower start of growth
Method: (§1)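 S. cerevisiae sul1Δ sul2Δ soa1Δ strains expressing 20 fungal SOA1 orthologs (or no transporter, 'soa1 del') were grown in liquid sulfur-free B medium, 4% glucose, pH 6.5 (7 mM K2HPO4). The strains were sulfur-starved for 3 days beforehand. Each sulfur compound was the sole sulfur source at 200 µM (sulfate also at 40 mM). OD600 curves of duplicate cultures were averaged and fitted (logistic / Richards, GroFit) to give maximal growth rate, maximal density and lag phase; temperature not stated.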

[2] = test system: Ogataea parapolymorpha_XP_013935289; assay: as above
Method: as §1

[3] = test system: Saccharomyces cerevisiae_SOA1; assay: as above
Method: as §1

[4] = test system: Saccharomyces uvarum_SOA1; assay: as above
Method: as §1

[5] = test system: Aspergillus nidulans_CBF74694; assay: maximal culture density with compound as sole sulfur source (OD600); higher = better growth
Method: as §1

[6] = test system: Aspergillus nidulans_XP_660563; assay: as above
Method: as §1

[7] = test system: Aspergillus nidulans_XP_661711; assay: as above
Method: as §1

[8] = test system: Aspergillus nidulans_XP_661733; assay: as above
Method: as §1

[9] = test system: Metarhizium robertsii_XP_007823832; assay: as above
Method: as §1

[10] = test system: Ogataea parapolymorpha_XP_013932458; assay: as above
Method: as §1

[11] = test system: Saccharomyces cerevisiae_SOA1; assay: as above
Method: as §1

[12] = test system: Saccharomyces uvarum_SOA2; assay: as above
Method: as §1

[13] = test system: Aspergillus nidulans (IAM 2006)_astA; assay: maximal growth rate with compound as sole sulfur source (OD600 per h); higher = better growth / uptake of the sulfur source
Method: as §1

[14] = test system: Aspergillus nidulans_CBF74694; assay: as above
Method: as §1

[15] = test system: Aspergillus nidulans_CBF80346; assay: as above
Method: as §1

[16] = test system: Aspergillus nidulans_XP_660563; assay: as above
Method: as §1

[17] = test system: Aspergillus nidulans_XP_660670; assay: as above
Method: as §1

[18] = test system: Aspergillus nidulans_XP_661711; assay: as above
Method: as §1

[19] = test system: Aspergillus nidulans_XP_661733; assay: as above
Method: as §1

[20] = test system: Aspergillus nidulans_XP_681611; assay: as above
Method: as §1

[21] = test system: Fusarium oxysporum_ENH65823; assay: as above
Method: as §1

[22] = test system: Metarhizium robertsii_XP_007821441; assay: as above
Method: as §1

[23] = test system: Metarhizium robertsii_XP_007822519; assay: as above
Method: as §1

[24] = test system: Metarhizium robertsii_XP_007823832; assay: as above
Method: as §1

[25] = test system: Ogataea parapolymorpha_XP_013932458; assay: as above
Method: as §1

[26] = test system: Ogataea parapolymorpha_XP_013935289; assay: as above
Method: as §1

[27] = test system: Ogataea parapolymorpha_XP_013936897; assay: as above
Method: as §1

[28] = test system: Saccharomyces cerevisiae_SOA1; assay: as above
Method: as §1

[29] = test system: Saccharomyces eubayanus_SOA1; assay: as above
Method: as §1

[30] = test system: Saccharomyces eubayanus_SOA2; assay: as above
Method: as §1

[31] = test system: Saccharomyces uvarum_SOA1; assay: as above
Method: as §1

[32] = test system: Saccharomyces uvarum_SOA2; assay: as above
Method: as §1

[33] = test system: soa1 del; assay: as above
Method: as §1

In the case of `N[C@@H](CS(=O)(=O)O)C(=O)O` [L-cysteic acid], the “lag phase before growth” value [1] is reported as 17.9 h, the “lag phase before growth” value [2] is reported as 10.9 h and the “lag phase before growth” value [3] is reported as 12.6 h. For the same compound, the “lag phase before growth” value [4] was 6.98 h, the maximal culture density [5] was 0.451 and the maximal culture density [6] was 0.535. For the same compound, the maximal culture density [7] was 1.16, the maximal culture density [8] was 1.3 and the maximal culture density [9] was 1.43. It also gave a maximal culture density [10] of 0.331, a maximal culture density [11] of 1.46 and a maximal culture density [12] of 0.234. The maximal growth rate [13] was 0.0282, the maximal growth rate [14] was 0.003 and the maximal growth rate [15] was 0.00644. It also gave a maximal growth rate [16] of 0.00641, a maximal growth rate [17] of 0.00837 and a maximal growth rate [18] of 0.00852. It also gave a maximal growth rate [19] of 0.0304, a maximal growth rate [20] of 0.00678 and a maximal growth rate [21] of 0.01. The maximal growth rate [22] was 0.00544, the maximal growth rate [23] was 0.00861 and the maximal growth rate [24] was 0.028. For the same compound, the maximal growth rate [25] was 0.00397, the maximal growth rate [26] was 0.035 and the maximal growth rate [27] was 0.00557. The maximal growth rate [28] was 0.037, the maximal growth rate [29] was 0.00648 and the maximal growth rate [30] was 0.00291. The maximal growth rate [31] was 0.00754, the maximal growth rate [32] was 0.00261 and the maximal growth rate [33] was 0.00337.
